Source: patent US4141899A, “4,5,6,7-Tetrahydroimidazo-[4,5-c]-pyridine derivatives” (Societa' Farmaceutici Italia S.p.A., priority 1976, dated 1979)

System: restraint ulcer
Assay: Inhibition of restraint ulcer in rats
Assay type: in vivo, Sprague-Dawley male rats
Details: Rattus norvegicus, po, p.o. one hour before 4 h immobilization, read-out: Antiulcer ED50 p.o (A)
Method: 1. […] Six Sprague-Dawley male rats (100-200 g) fasted for 24 hours were used for each group.
A square flexible small-mesh wire netting was used for immobilization. After 4 hours immobilization the rats were sacrificed, their stomachs were removed, and lesions counted under a dissecting microscope.
The compounds were administered subcutaneously (s.c.) immediately before the immobilization or orally (os) one hour before.

Point of comparison: `CCC1c2c(ncn2C)CCN1C(=O)NC(C)C` (centres unmarked) [compound 1404, 3-Methyl-4-ethyl-5-(N-isopropyl-carbamoyl)-4,5,6,7-tetrahydroimidazo-[4,5-c]-pyridine], ED50 34 mg/kg. Against it:
- O=C(NC1CC1)N1CCc2[nH]cnc2C1 [compound 1365, 5-(N-cyclopropyl-carbamoyl)-4,5,6,7-tetrahydro-imidazo-[4,5-c]-pyridine] — 8.9-fold lower, 3.8 mg/kg
- CNC(=S)N1CCc2[nH]cnc2C1 [compound 1068, 5-(N-methyl-thiocarbamoyl)-4,5,6,7-tetrahydroimidazo-[4,5-c]-pyridine] — 14-fold lower, 2.4 mg/kg
- N=C(NC(=O)c1ccccc1)N1CCc2[nH]cnc2C1 [compound 1450, 5-(N-benzoylguanyl)-4,5,6,7-tetrahydroimidazo-[4,5-c]-pyridine] — the same, 34 mg/kg
- CC(C)NC(=S)N1CCc2ncn(C)c2C1 [compound 1286] — 4-fold lower, 8.5 mg/kg
- CCC1c2nc[nH]c2CCN1C(=N)NC(=O)c1ccccc1 (centres unmarked) [compound 1448, 4-Ethyl-5-(N-benzoylguanyl)-4,5,6,7-tetrahydroimidazo-[4,5-c]-pyridine] — 1.5-fold lower, 22 mg/kg
- CCNC(=S)N1CCc2[nH]cnc2C1 [compound 1293, 5-(N-ethyl-thiocarbamoyl)-4,5,6,7-tetrahydro-imidazo-[4,5-c]-pyridine] — within 1.5-fold, 25 mg/kg
- CC(C)NC(=S)N1CCc2[nH]cnc2C1 [compound 1087, 5-(N-isopropyl-thiocarbamoyl)-4,5,6,7-tetrahydro-imidazo-[4,5-c]-pyridine] — 11-fold lower, 3.1 mg/kg
- S=C(NC1CCCC1)N1CCc2[nH]cnc2C1 [compound 1360, 5-(N-cyclopentyl-thiocarbamoyl)-b 4,5,6,7-tetrahydro-imidazo-[4,5-c]-pyridine] — 6.1-fold lower, 5.6 mg/kg
- CCC1c2nc[nH]c2CCN1C(=S)NC(C)C (centres unmarked) [compound 1184, 4-Ethyl-5-(N-isopropyl-thiocarbamoyl)-4,5,6,7-tetrahydro-imidazo-[4,5-c]-pyridine] — 3.1-fold lower, 11 mg/kg
- S=C(NC1CC1)N1CCc2[nH]cnc2C1 [compound 1359, 5-(N-cyclopropyl-thiocarbamoyl)-4,5,6,7-tetrahydro-imidazo-[4,5-c]-pyridine] — 19-fold lower, 1.8 mg/kg
- O=C(NC1CCCC1)N1CCc2[nH]cnc2C1 [compound 1366, 5-(N-cyclopentyl-carbamoyl)-4,5,6,7-tetrahydro-imidazo-[4,5-c]-pyridine] — 8.9-fold lower, 3.8 mg/kg

Same assay, conditions: Rattus norvegicus, sc, s.c. immediately before 4 h immobilization, read-out: Antiulcer ED50 s.c.

Point of comparison: `CCNC(=S)N1CCc2[nH]cnc2C1` [compound 1293, 5-(N-ethyl-thiocarbamoyl)-4,5,6,7-tetrahydro-imidazo-[4,5-c]-pyridine], ED50 6 mg/kg. Against it:
- O=C(NC1CC1)N1CCc2[nH]cnc2C1 [compound 1365, 5-(N-cyclopropyl-carbamoyl)-4,5,6,7-tetrahydro-imidazo-[4,5-c]-pyridine] — 3-fold lower, 2 mg/kg
- CNC(=S)N1CCc2[nH]cnc2C1 [compound 1068, 5-(N-methyl-thiocarbamoyl)-4,5,6,7-tetrahydroimidazo-[4,5-c]-pyridine] — 10-fold lower, 0.6 mg/kg
- N=C(NC(=O)c1ccccc1)N1CCc2[nH]cnc2C1 [compound 1450, 5-(N-benzoylguanyl)-4,5,6,7-tetrahydroimidazo-[4,5-c]-pyridine] — higher, > 10 mg/kg
- CC(C)NC(=S)N1CCc2ncn(C)c2C1 [compound 1286] — 7.1-fold lower, 0.85 mg/kg
- CCC1c2c(ncn2C)CCN1C(=O)NC(C)C (centres unmarked) [compound 1404, 3-Methyl-4-ethyl-5-(N-isopropyl-carbamoyl)-4,5,6,7-tetrahydroimidazo-[4,5-c]-pyridine] — 1.7-fold higher, 10 mg/kg
- CCC1c2nc[nH]c2CCN1C(=N)NC(=O)c1ccccc1 (centres unmarked) [compound 1448, 4-Ethyl-5-(N-benzoylguanyl)-4,5,6,7-tetrahydroimidazo-[4,5-c]-pyridine] — higher, > 10 mg/kg
- CC(C)NC(=S)N1CCc2[nH]cnc2C1 [compound 1087, 5-(N-isopropyl-thiocarbamoyl)-4,5,6,7-tetrahydro-imidazo-[4,5-c]-pyridine] — 6.7-fold lower, 0.9 mg/kg
- S=C(NC1CCCC1)N1CCc2[nH]cnc2C1 [compound 1360, 5-(N-cyclopentyl-thiocarbamoyl)-b 4,5,6,7-tetrahydro-imidazo-[4,5-c]-pyridine] — higher, > 10 mg/kg
- CCC1c2nc[nH]c2CCN1C(=S)NC(C)C (centres unmarked) [compound 1184, 4-Ethyl-5-(N-isopropyl-thiocarbamoyl)-4,5,6,7-tetrahydro-imidazo-[4,5-c]-pyridine] — 9.4-fold lower, 0.64 mg/kg
- S=C(NC1CC1)N1CCc2[nH]cnc2C1 [compound 1359, 5-(N-cyclopropyl-thiocarbamoyl)-4,5,6,7-tetrahydro-imidazo-[4,5-c]-pyridine] — within 1.5-fold, 5 mg/kg
- O=C(NC1CCCC1)N1CCc2[nH]cnc2C1 [compound 1366, 5-(N-cyclopentyl-carbamoyl)-4,5,6,7-tetrahydro-imidazo-[4,5-c]-pyridine] — 8-fold lower, 0.75 mg/kg

System: gastric secretion
Assay: Inhibition of gastric secretion in rats (pylorus ligature technique)
Assay type: in vivo, Sprague-Dawley male rats
Details: Rattus norvegicus, sc, s.c. at the time of pylorus ligature, 4 h, read-out: Antisecretory ED50 s.c.
Method: 2. […] Gastric antisecretory activity was evaluated in rats by the pylorus ligature technique.
Six Sprague-Dawley male rats (110-130 g) were used for each group. Twenty-four hours before the test, the rats were deprived of food but their water supply was maintained.
On the day of the operation, the pylorus was ligated under light ether anaesthesia. Four hours after the ligature, the rats were sacrificed, the stomach secretion was collected and centrifuged at 3500 r.p.m. for 10 minutes, and the volume, less sediment, was determined. The amount of the free hydrochloric acid in the gastric juice was determined by titration against 0.01N sodium hydroxide, using Topfer's Indicator.
Each compound was injected subcutaneously at the time of ligature.

Point of comparison: `CC(C)NC(=S)N1CCc2[nH]cnc2C1` [compound 1087, 5-(N-isopropyl-thiocarbamoyl)-4,5,6,7-tetrahydro-imidazo-[4,5-c]-pyridine], ED50 6 mg/kg. Against it:
- O=C(NC1CC1)N1CCc2[nH]cnc2C1 [compound 1365, 5-(N-cyclopropyl-carbamoyl)-4,5,6,7-tetrahydro-imidazo-[4,5-c]-pyridine] — 8.3-fold higher, 50 mg/kg
- CNC(=S)N1CCc2[nH]cnc2C1 [compound 1068, 5-(N-methyl-thiocarbamoyl)-4,5,6,7-tetrahydroimidazo-[4,5-c]-pyridine] — higher, > 50 mg/kg
- N=C(NC(=O)c1ccccc1)N1CCc2[nH]cnc2C1 [compound 1450, 5-(N-benzoylguanyl)-4,5,6,7-tetrahydroimidazo-[4,5-c]-pyridine] — higher, > 50 mg/kg
- CC(C)NC(=S)N1CCc2ncn(C)c2C1 [compound 1286] — 5.7-fold higher, 34 mg/kg
- CCC1c2c(ncn2C)CCN1C(=O)NC(C)C (centres unmarked) [compound 1404, 3-Methyl-4-ethyl-5-(N-isopropyl-carbamoyl)-4,5,6,7-tetrahydroimidazo-[4,5-c]-pyridine] — higher, > 50 mg/kg
- CCC1c2nc[nH]c2CCN1C(=N)NC(=O)c1ccccc1 (centres unmarked) [compound 1448, 4-Ethyl-5-(N-benzoylguanyl)-4,5,6,7-tetrahydroimidazo-[4,5-c]-pyridine] — higher, > 50 mg/kg
- CCNC(=S)N1CCc2[nH]cnc2C1 [compound 1293, 5-(N-ethyl-thiocarbamoyl)-4,5,6,7-tetrahydro-imidazo-[4,5-c]-pyridine] — within 1.5-fold, 8 mg/kg
- S=C(NC1CCCC1)N1CCc2[nH]cnc2C1 [compound 1360, 5-(N-cyclopentyl-thiocarbamoyl)-b 4,5,6,7-tetrahydro-imidazo-[4,5-c]-pyridine] — 3.2-fold higher, 19 mg/kg
- CCC1c2nc[nH]c2CCN1C(=S)NC(C)C (centres unmarked) [compound 1184, 4-Ethyl-5-(N-isopropyl-thiocarbamoyl)-4,5,6,7-tetrahydro-imidazo-[4,5-c]-pyridine] — 3.7-fold higher, 22 mg/kg
- S=C(NC1CC1)N1CCc2[nH]cnc2C1 [compound 1359, 5-(N-cyclopropyl-thiocarbamoyl)-4,5,6,7-tetrahydro-imidazo-[4,5-c]-pyridine] — 6.7-fold higher, 40 mg/kg
- O=C(NC1CCCC1)N1CCc2[nH]cnc2C1 [compound 1366, 5-(N-cyclopentyl-carbamoyl)-4,5,6,7-tetrahydro-imidazo-[4,5-c]-pyridine] — 2.8-fold higher, 17 mg/kg

System: chromodacryorhea induced by carbacholine
Assay: Anticholinergic activity in rats (antagonism against chromodacryorhea induced by carbacholine)
Assay type: in vivo, Sprague-Dawley male rats
Details: Rattus norvegicus, po; rats; p.o.; carbacholine-induced chromodacryorhea; read-out: anticholinergic ED50 p.o. (B)
From the text: 3. Anticholinergic activity in rats. […] J. Pharm. […] From 3 to 5 Sprague-Dawley male rats, 250 g body weight, have been employed for each group. […] The compound reference numbers are explained in the Examples below.

Point of comparison: `CC(C)NC(=S)N1CCc2[nH]cnc2C1` [compound 1087, 5-(N-isopropyl-thiocarbamoyl)-4,5,6,7-tetrahydro-imidazo-[4,5-c]-pyridine], ED50 2 mg/kg. Against it:
- O=C(NC1CC1)N1CCc2[nH]cnc2C1 [compound 1365, 5-(N-cyclopropyl-carbamoyl)-4,5,6,7-tetrahydro-imidazo-[4,5-c]-pyridine] — 10-fold higher, 21 mg/kg
- CNC(=S)N1CCc2[nH]cnc2C1 [compound 1068, 5-(N-methyl-thiocarbamoyl)-4,5,6,7-tetrahydroimidazo-[4,5-c]-pyridine] — higher, > 100 mg/kg
- CC(C)NC(=S)N1CCc2ncn(C)c2C1 [compound 1286] — higher, > 50 mg/kg
- CCC1c2nc[nH]c2CCN1C(=N)NC(=O)c1ccccc1 (centres unmarked) [compound 1448, 4-Ethyl-5-(N-benzoylguanyl)-4,5,6,7-tetrahydroimidazo-[4,5-c]-pyridine] — higher, > 100 mg/kg
- S=C(NC1CCCC1)N1CCc2[nH]cnc2C1 [compound 1360, 5-(N-cyclopentyl-thiocarbamoyl)-b 4,5,6,7-tetrahydro-imidazo-[4,5-c]-pyridine] — 38-fold higher, 76 mg/kg
- CCC1c2nc[nH]c2CCN1C(=S)NC(C)C (centres unmarked) [compound 1184, 4-Ethyl-5-(N-isopropyl-thiocarbamoyl)-4,5,6,7-tetrahydro-imidazo-[4,5-c]-pyridine] — 5-fold higher, 10 mg/kg
- S=C(NC1CC1)N1CCc2[nH]cnc2C1 [compound 1359, 5-(N-cyclopropyl-thiocarbamoyl)-4,5,6,7-tetrahydro-imidazo-[4,5-c]-pyridine] — 23-fold higher, 45.5 mg/kg
- O=C(NC1CCCC1)N1CCc2[nH]cnc2C1 [compound 1366, 5-(N-cyclopentyl-carbamoyl)-4,5,6,7-tetrahydro-imidazo-[4,5-c]-pyridine] — 5-fold higher, 10 mg/kg

Same assay, conditions: rats; p.o.; B = anticholinergic ED50, A = antiulcer ED50

Point of comparison: `S=C(NC1CC1)N1CCc2[nH]cnc2C1` [compound 1359, 5-(N-cyclopropyl-thiocarbamoyl)-4,5,6,7-tetrahydro-imidazo-[4,5-c]-pyridine], “B/A (ratio of ED50's for oral anti-cholinergic and anti-ulcer activities)” value 25. Against it:
- O=C(NC1CC1)N1CCc2[nH]cnc2C1 [compound 1365, 5-(N-cyclopropyl-carbamoyl)-4,5,6,7-tetrahydro-imidazo-[4,5-c]-pyridine] — lower, 5.5
- CC(C)NC(=S)N1CCc2[nH]cnc2C1 [compound 1087, 5-(N-isopropyl-thiocarbamoyl)-4,5,6,7-tetrahydro-imidazo-[4,5-c]-pyridine] — lower, 0.6
- S=C(NC1CCCC1)N1CCc2[nH]cnc2C1 [compound 1360, 5-(N-cyclopentyl-thiocarbamoyl)-b 4,5,6,7-tetrahydro-imidazo-[4,5-c]-pyridine] — lower, 13
- O=C(NC1CCCC1)N1CCc2[nH]cnc2C1 [compound 1366, 5-(N-cyclopentyl-carbamoyl)-4,5,6,7-tetrahydro-imidazo-[4,5-c]-pyridine] — lower, 2.6

With `CNC(=S)N1CCc2[nH]cnc2C1` [compound 1068, 5-(N-methyl-thiocarbamoyl)-4,5,6,7-tetrahydroimidazo-[4,5-c]-pyridine] the “B/A (ratio of ED50's for oral anti-cholinergic and anti-ulcer activities)” value was over 40.
`CC(C)NC(=S)N1CCc2ncn(C)c2C1` [compound 1286] was tested, and the “B/A (ratio of ED50's for oral anti-cholinergic and anti-ulcer activities)” value was over 5.8.
`CCC1c2nc[nH]c2CCN1C(=N)NC(=O)c1ccccc1` (centres unmarked) [compound 1448, 4-Ethyl-5-(N-benzoylguanyl)-4,5,6,7-tetrahydroimidazo-[4,5-c]-pyridine] was tested, and the “B/A (ratio of ED50's for oral anti-cholinergic and anti-ulcer activities)” value was over 4.
